Assay: in vitro
Conditions: human, hela cells, % viability

SMILES | viability at 28.5 h, 10 µM | viability at 28.5 h, 10 µM (bulk resorufin, single well)
FC(F)(F)c1ccc(SCc2ccccc2)nc1 [CBK103715] | 89.7% | –
FC(F)(F)c1ccnc(SCCOc2ccccc2)n1 [CBK103721] | 73.9% | –
FC(F)(F)c1nc2ccccc2nc1SCCOc1ccccc1 [CBK103726] | 102% | –
CCN(CC)C(=O)CN1C(=O)C2(Nc3ccccc3C(=O)N2c2ccc(F)cc2)c2ccccc21 (stereo not drawn) [CBK103751] | 83.3% | –
Cc1ccc(C2(O)CC3CCC(C2)N3C(=O)C2CCC2)cc1 (stereo not drawn) [CBK103860] | 99.2% | –
CC(NC(=O)C(C)(C)C)c1nc(-c2cccnc2)n[nH]1 (stereo not drawn) [CBK104007] | 94.2% | –
CC(NC(=O)C(C)(C)C)c1nc(-c2ccncc2)n[nH]1 (stereo not drawn) [CBK104074] | 91.9% | –
Cn1c(=O)n(CC(=O)NC2CC2)c2cccnc21 [CBK104297] | 98.7% | –
c1cc(-c2n[nH]c(C3CCNCC3)n2)ccn1 [CBK104676C] | 85.2% | –
CC(C)(C)OC(=O)N1CCC2(CC1)OCc1cc(-c3cccc(OCc4ccc(Cl)c(Cl)c4)c3)ccc1O2 [CBK105230] | – | 86.6%
CC(C)(C)OC(=O)N1CCC2(CC1)OCc1cc(-c3cccc(OCC(=O)Nc4ccccc4)c3)ccc1O2 [CBK105255] | – | 99.6%
O=C1N=C(NC23CC4CC(CC(C4)C2)C3)OC1c1ccccc1 (stereo not drawn) [CBK105263] | 107% | –
CC(C)Nc1nccnc1SCCN(C)C [CBK105290] | 92.1% | –
CC(=O)NCCSc1cc(NC(C)C)ncn1 [CBK105293] | 96.8% | –
CN(C)CCSc1cncc(N2CCCC2)n1 [CBK105294] | 104% | –
CN(C)CCSc1cc(N2CCCC2)ncn1 [CBK105295] | 116% | –
CC(=O)NCCSc1cc(C(F)(F)F)ccn1 [CBK105297] | 107% | –
CC(=O)NCCSc1ccc(C(F)(F)F)cn1 [CBK105298] | 94.3% | –
CC(=O)NCCSc1cccc(C(F)(F)F)n1 [CBK105299] | 112% | –
FC(F)(F)c1ccnc(SCCc2cnccn2)n1 [CBK105300] | 88.6% | –
CCc1[nH]nc(O)c1Cc1c(Cl)cccc1Cl [CBK105304] | 115% | –
COCc1[nH]nc(O)c1Cc1c(Cl)cccc1Cl [CBK105305] | 91% | –

SMILES | viability at 28.5 h, 10 µM | viability at 28.5 h, 10 µM (bulk resorufin, single well)
CC(C)Nc1cc(SCCN(C)C)ncn1 [CBK105616] | 109% | –
CC(C)Nc1cc(SCCc2ccccn2)ncn1 [CBK105617] | 97.8% | –
CC(=O)NCCSc1nc2ccccc2nc1NC(C)C [CBK105618] | 102% | –
CC(=O)NCCSc1cc(N2CCCC2)ncn1 [CBK105621] | 106% | –
Fc1ccc(OCCOc2ccccc2-c2ccc3c(c2)COC2(CCNCC2)O3)cc1 [CBK105745] | – | 88.7%
CN(C)C(=S)Oc1ccc2[nH]c3c(c2c1)CCNC31CCN(CCOc2ccccc2)C1 (stereo not drawn) [CBK105748] | 74.8% | –
Cc1ccccc1NC(=O)NCc1ccccc1 [CBK105833] | 86.8% | –
CNC(=O)c1nn(CCCc2ccc(OC)cc2)c2ccccc12 [CBK105842] | 109% | –
COc1ccc2[nH]cc(CC(=O)Nc3cccc(-c4ccc5c(c4)COC4(CCNCC4)O5)c3)c2c1 [CBK105859] | – | 78%
FC(F)(F)c1ccc(COc2cccc(-c3ccc4c(c3)COC3(CCNCC3)O4)c2)cc1 [CBK105868] | – | 83.7%
COCCNc1nc(-c2ccc3c(c2)OCO3)ccc1C(=O)N(C)CCN(C)C [CBK105915] | 103% | –
COCCNc1nc(-c2cccc(Cl)c2Cl)ccc1C(=O)N(C)CCN(C)C [CBK105922] | 98.3% | –
COCCNc1nc(-c2ccc3[nH]ccc3c2)ccc1C(=O)N1CCN(C)CC1 [CBK105956] | 92.2% | –
COCCNc1nc(-c2cc(C(C)C)ccc2OC)ccc1C(=O)NCCNC(C)=O [CBK105985] | 96.6% | –
CNC(=O)c1ccc(-c2ccc(C)c(C)c2)nc1NCCOC [CBK105999] | 96.6% | –
CNC(=O)c1ccc(-c2cccc(OC(F)(F)F)c2)nc1NCCOC [CBK106000] | 96.4% | –
CNC(=O)c1ccc(-c2ccccc2C)nc1NCCOC [CBK106007] | 99.7% | –
COCCNC(=O)c1ccc(-c2ccc(OC)cc2)nc1N1CCN(C(=O)c2ccco2)CC1 [CBK106010] | 88.1% | –
CC(=O)Nc1cccc(-c2ccc(C(=O)NCc3ccc(F)cc3)c(N3CCN(C(=O)c4ccco4)CC3)n2)c1 [CBK106012] | 85.5% | –
COc1cccc(-c2ccc(C(=O)NCc3ccccc3SC)c(N3CCN(C(=O)c4ccco4)CC3)n2)c1 [CBK106025] | 94.3% | –
COc1cccc(NC(=O)c2ccc(-c3cc(C(F)(F)F)cc(C(F)(F)F)c3)nc2N(C)C)c1 [CBK106028] | 119% | –
COCCNC(=O)c1ccc(-c2cccc(Cl)c2Cl)nc1N(C)C [CBK106057] | 89.4% | –

SMILES | viability at 28.5 h, 10 µM | viability at 28.5 h, 10 µM (bulk resorufin, single well)
CN(C)CCN(C)C(=O)c1ccc(-c2ccccc2)nc1N(C)C [CBK106070] | 88.1% | –
CC(=O)c1ccc(-c2ccc(C(=O)N(C)CCN(C)C)c(N(C)C)n2)s1 [CBK106071] | 85.6% | –
CN(C)CCN(C)C(=O)c1ccc(-c2ccc3c(c2)OCO3)nc1N(C)C [CBK106072] | 92.7% | –
CN(C)CCN(C)C(=O)c1ccc(-c2cccc(N(C)C)c2)nc1N(C)C [CBK106077] | 89.6% | –
CN(C)CCN(C)C(=O)c1ccc(-c2cccc(OC(F)(F)F)c2)nc1N(C)C [CBK106081] | 90.3% | –
Cc1csc(-c2ccc(C(=O)N(C)CCN(C)C)c(N(C)C)n2)c1 [CBK106088] | 94.1% | –
COCc1cccc(-c2ccc(C(=O)N(C)CCN(C)C)c(N(C)C)n2)c1 [CBK106091] | 103% | –
CN1CCN(C(=O)c2ccc(-c3ccc(N4CCOCC4)cc3)nc2N(C)C)CC1 [CBK106114] | 90% | –
CN1CCN(C(=O)c2ccc(-c3ccccc3)nc2N(C)C)CC1 [CBK106115] | 84.4% | –
CNC(=O)c1ccc(-c2ccc3[nH]ccc3c2)nc1N(C)C [CBK106146] | 90.9% | –
CNC(=O)c1ccc(-c2cc(C)cs2)nc1N(C)C [CBK106150] | 86.8% | –
CC(=O)c1ccc(-c2ccc(C(=O)N3CCN(C)CC3)c(N3CCOCC3)n2)s1 [CBK106181] | 96.3% | –
Cc1ccc(C(=O)NCc2nc3ccccc3[nH]2)c(N2CCOCC2)n1 [CBK106200] | 88.4% | –
Cc1ccc(C(=O)NCCN2CCOCC2)c(N2CCOCC2)n1 [CBK106201] | 87% | –
Cc1ccc(C(=O)NCc2ccc3c(c2)CCO3)c(N2CCOCC2)n1 [CBK106202] | 88.8% | –
CNC(=O)c1ccc(-c2ccccc2OC)nc1N1CCOCC1 [CBK106210] | 87.4% | –
CNC(=O)c1cccc(NC(=O)c2ccc(C)nc2N2CCOCC2)c1 [CBK106223] | 95.1% | –
CSc1ccccc1CNC(=O)c1ccc(C)nc1N1CCOCC1 [CBK106224] | 91.9% | –
COCCNC(=O)c1ccc(-c2cc(C(C)C)ccc2OC)nc1NCC1CC1 [CBK106256] | 94.1% | –
Cc1csc(-c2ccc(C(=O)N(C)CCN(C)C)c(NCC3CC3)n2)c1 [CBK106279] | 84.2% | –
CNC(=O)c1ccc(-c2ccc(N3CCOCC3)cc2)nc1NCC1CC1 [CBK106305] | 102% | –
CNC(=O)c1ccc(-c2cc(OC)c(OC)c(OC)c2)nc1NCC1CC1 [CBK106312] | 101% | –

SMILES | viability at 28.5 h, 10 µM | viability at 28.5 h, 10 µM (bulk resorufin, single well)
CNC(=O)c1ccc(-c2cccc(COC)c2)nc1NCC1CC1 [CBK106322] | 90.7% | –
COCCNC(=O)c1ccc(-c2ccccc2C)nc1NC(C)=O [CBK106325] | 109% | –
CC(=O)N(C)c1nc(-c2ccccc2C)ccc1C(=O)NC1CCCCC1 [CBK106333] | 96.9% | –
CC(=O)N(C)c1nc(-c2ccccc2C)ccc1C(=O)N(C)C [CBK106350] | 89% | –
O=C(NCc1nc2ccccc2[nH]1)c1cc(-c2ccc(Cl)cc2)cnc1NCc1ccc2c(c1)OCO2 [CBK106377] | 102% | –
O=C(NCc1ccco1)c1cc(-c2ccc3[nH]ccc3c2)cnc1NCCOc1ccccc1 [CBK106388] | 89.9% | –
CNC(=O)c1cccc(NC(=O)c2cc(-c3ccc(O)cc3)cnc2N(C)C)c1 [CBK106397] | 89.6% | –
O=C(O)c1cccc(-c2cnc(NCC3CC3)c(C(=O)NCC(F)(F)F)c2)c1 [CBK106420] | 117% | –
Cc1ccccc1-c1cnc(NS(C)(=O)=O)c(C(=O)N(C)C)c1 [CBK106430] | 103% | –
O=C1CCC(=O)N1CCn1c(=O)n(S(=O)(=O)c2cccc(Cl)c2)c2ccccc21 [CBK106493] | 93.1% | –
CCCS(=O)(=O)n1c(=O)n(CC(=O)c2ccccc2OC)c2ccccc21 [CBK106498] | 93.1% | –
CCN(CC)c1ccc(C(=O)Cn2c(=O)n(C(=O)CCCc3ccc(OC)cc3)c3ccccc32)cc1 [CBK106503] | 89.6% | –
CCN(CC)c1ccc(C(=O)Cn2c(=O)n(S(=O)(=O)c3ccc4ccccc4c3)c3ccccc32)cc1 [CBK106505] | 88.9% | –
COC(=O)c1ccccc1S(=O)(=O)n1c(=O)n(CCc2c[nH]c3ccccc23)c2ccccc21 [CBK106509] | 87.2% | –
CC(C)c1ccc(S(=O)(=O)n2c(=O)n(CCc3c[nH]c4ccccc34)c3ccccc32)cc1 [CBK106518] | 87.4% | –
CS(=O)(=O)c1cccc(C(=O)n2c(=O)n(CC3CCCCC3)c3ccccc32)c1 [CBK106520] | 103% | –
COC(=O)CCCC(=O)n1c(=O)n(CC2CCCCC2)c2ccccc21 [CBK106524] | 112% | –
O=c1n(CC2CCCCC2)c2ccccc2n1S(=O)(=O)c1ccc2ccccc2c1 [CBK106527] | 92.5% | –
CS(=O)(=O)c1ccc(Cn2c(=O)n(S(=O)(=O)c3ccccc3)c3ccccc32)cc1 [CBK106530] | 95.1% | –
CN(C)c1cccc2c(S(=O)(=O)n3c(=O)n(Cc4ccc(S(C)(=O)=O)cc4)c4ccccc43)cccc12 [CBK106535] | 103% | –
COC(=O)CCCC(=O)n1c(=O)n(Cc2ccc(S(C)(=O)=O)cc2)c2ccccc21 [CBK106538] | 105% | –

From article PMC12040169 (PLOS Biology, 2025)
